According to article PMC5933782, “Molecular structures of cdc2-like kinases in complex with a new inhibitor chemotype” (PLoS ONE, 2018):
Where a name gives a salt, the structure may show the parent alone.

Legend:
GSK-3 = test: radiometric protein kinase assay; assay type: biochemical, porcine; conditions: 15 μmol/L ATP; read-out: IC50 GSK3
CDK9/cyclin T = CDK9/cyclin T (Homo sapiens, UniProt P50750); test: radiometric protein kinase assay
Protocol: Buffers. Buffer A: 10 mM MgCl2, 1 mM EGTA, 1 mM DTT, 25 mM Tris-HCl pH 7.5, 50 μg heparin/mL. Buffer C: 60 mM β-glycerophosphate, 15 mM p-nitrophenylphosphate, 25 mM MOPS (pH 7.2), 15 mM EGTA, 15 mM MgCl2, 1 mM DTT, 1 mM sodium vanadate, 1 mM phenylphosphate.
Kinase activities were assayed in buffer A or C at 30°C at a final ATP concentration of 15 μmol/L. Blank values were subtracted and activities were expressed in percent of the maximal activity, i.e. in the absence of inhibitors. Controls were performed with appropriate dilutions of DMSO.
Their kinase activity was assayed in buffer A, with 1 mg histone H1/mL, in the presence of 15 μmol/L [γ-33P] ATP (3,000 Ci/mmol; 10 mCi/mL) in a final volume of 30 μL. After 30 min incubation at 30°C, the reaction was stopped by harvesting onto P81 phosphocellulose supernatant (Whatman) using a FilterMate harvester (Packard) and washing in 1% phosphoric acid. Scintillation fluid was added and the radioactivity measured in a Packard counter.
All data points for construction of dose response curves were recorded in triplicate.

CK1δ/ε = test: radiometric protein kinase assay; assay type: biochemical, porcine; conditions: 15 μmol/L ATP; read-out: IC50 CK1
CDK1/cyclin B = test: radiometric protein kinase assay; assay type: biochemical, starfish; conditions: 15 μmol/L ATP
DYRK1A = DYRK1A (Homo sapiens, UniProt Q13627); test: radiometric protein kinase assay; assay type: biochemical; conditions: 15 μmol/L ATP; read-out: IC50 DYRK 1A
CLK1 = CLK1 (Mus musculus, UniProt P22518); test: radiometric protein kinase assay
Chain of CLK1 (P22518 whole entry): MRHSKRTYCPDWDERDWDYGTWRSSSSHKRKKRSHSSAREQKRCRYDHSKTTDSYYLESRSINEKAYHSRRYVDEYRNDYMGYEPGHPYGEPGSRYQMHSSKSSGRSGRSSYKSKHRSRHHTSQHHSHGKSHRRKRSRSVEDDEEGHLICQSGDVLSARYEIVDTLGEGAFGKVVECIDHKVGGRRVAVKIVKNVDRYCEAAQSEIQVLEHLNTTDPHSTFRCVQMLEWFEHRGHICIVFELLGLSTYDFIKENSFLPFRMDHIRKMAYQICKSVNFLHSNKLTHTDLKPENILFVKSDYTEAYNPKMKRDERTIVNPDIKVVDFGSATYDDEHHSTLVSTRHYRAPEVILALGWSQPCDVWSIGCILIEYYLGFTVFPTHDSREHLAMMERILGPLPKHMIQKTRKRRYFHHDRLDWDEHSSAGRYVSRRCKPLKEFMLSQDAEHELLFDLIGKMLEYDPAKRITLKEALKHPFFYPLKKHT

CDK2/cyclin A = target: T1, CDK2/cyclin A (Homo sapiens, UniProt P24941); test: radiometric protein kinase assay; assay type: biochemical; conditions: 15 μmol/L ATP; read-out: IC50 CDK2/cyclinA
T1 construct: made in house

CDK5/p25 = target: T2, CDK5/p25 (Homo sapiens, UniProt Q00535); test: radiometric protein kinase assay; assay type: biochemical; conditions: 15 μmol/L ATP
T2 construct: made in house
T2 sequence (Q00535 whole entry): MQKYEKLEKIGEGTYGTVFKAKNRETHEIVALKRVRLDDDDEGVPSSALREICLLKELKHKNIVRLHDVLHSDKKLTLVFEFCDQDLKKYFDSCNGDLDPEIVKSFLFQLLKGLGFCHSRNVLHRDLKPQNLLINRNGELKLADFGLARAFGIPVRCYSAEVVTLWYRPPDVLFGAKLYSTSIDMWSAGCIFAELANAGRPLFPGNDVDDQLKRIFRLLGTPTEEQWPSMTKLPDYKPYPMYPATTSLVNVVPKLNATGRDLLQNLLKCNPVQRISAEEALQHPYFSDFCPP
T2 sequence (Q15078 99-307 partner limits assumed): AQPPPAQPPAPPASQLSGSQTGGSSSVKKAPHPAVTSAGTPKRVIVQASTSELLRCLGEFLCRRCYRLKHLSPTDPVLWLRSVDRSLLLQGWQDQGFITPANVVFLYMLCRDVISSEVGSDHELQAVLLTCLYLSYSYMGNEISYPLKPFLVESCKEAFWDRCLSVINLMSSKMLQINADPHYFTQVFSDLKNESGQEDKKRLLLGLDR

Chain of CDK9/cyclin T (P50750 whole entry): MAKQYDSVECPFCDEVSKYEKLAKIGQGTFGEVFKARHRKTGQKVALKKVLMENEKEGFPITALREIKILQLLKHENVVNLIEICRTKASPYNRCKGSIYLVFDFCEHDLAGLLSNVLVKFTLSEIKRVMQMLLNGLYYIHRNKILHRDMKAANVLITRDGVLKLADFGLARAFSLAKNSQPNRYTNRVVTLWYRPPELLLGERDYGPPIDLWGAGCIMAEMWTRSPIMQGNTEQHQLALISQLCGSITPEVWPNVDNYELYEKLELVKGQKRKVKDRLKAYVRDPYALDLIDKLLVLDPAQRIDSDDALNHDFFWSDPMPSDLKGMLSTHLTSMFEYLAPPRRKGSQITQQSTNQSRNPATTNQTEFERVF
Chain of CDK9/cyclin T (O60563 whole entry partner): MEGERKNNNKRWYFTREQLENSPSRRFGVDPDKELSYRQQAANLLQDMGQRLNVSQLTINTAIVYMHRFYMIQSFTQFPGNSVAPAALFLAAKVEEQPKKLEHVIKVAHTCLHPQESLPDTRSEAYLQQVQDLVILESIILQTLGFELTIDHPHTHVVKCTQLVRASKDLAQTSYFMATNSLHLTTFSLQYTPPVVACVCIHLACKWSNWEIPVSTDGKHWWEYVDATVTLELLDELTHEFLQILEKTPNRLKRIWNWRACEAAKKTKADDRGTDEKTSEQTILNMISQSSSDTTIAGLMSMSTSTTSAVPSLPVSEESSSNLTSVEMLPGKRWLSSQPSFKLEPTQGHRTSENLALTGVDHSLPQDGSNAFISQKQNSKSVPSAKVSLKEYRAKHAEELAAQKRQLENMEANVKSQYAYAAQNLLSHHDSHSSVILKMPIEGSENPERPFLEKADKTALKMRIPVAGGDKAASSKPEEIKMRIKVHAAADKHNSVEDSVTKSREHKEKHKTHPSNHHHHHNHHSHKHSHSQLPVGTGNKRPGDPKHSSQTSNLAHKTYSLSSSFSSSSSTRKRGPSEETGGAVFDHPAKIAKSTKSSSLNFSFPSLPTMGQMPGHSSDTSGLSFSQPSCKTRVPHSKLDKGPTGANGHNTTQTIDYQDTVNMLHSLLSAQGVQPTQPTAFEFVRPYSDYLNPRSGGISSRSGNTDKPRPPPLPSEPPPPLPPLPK

Compound `CCc1[nH]c2c3c(ccc2c1-c1ccccc1)CNC3=O` (as salt: sodium) [8l, 2-Ethyl-3-phenyl-6,7-dihydropyrrolo[3,4-g]indol-8(1H)-one] has a melting point of 165 to 170 °C.
Work on `O=C1NCc2c(Br)cc3c(-c4ccccc4)c[nH]c3c21` (as salt: sodium) [12a, 5-Bromo-3-phenyl-6,7-dihydropyrrolo[3,4-g]indol-8(1H)-one] yielded a melting point of 226 to 227 °C.
`CN1Cc2ccc3c(-c4ccccc4)c[nH]c3c2C1=O` (as salt: sodium) [12d, 7-Methyl-3-phenyl-6,7-dihydropyrrolo[3,4-g]indol-8(1H)-one] gave a melting point of 265 to 267 °C.
With `O=C1NCc2ccc3c(-c4ccccc4Cl)c[nH]c3c21` [8b, 3-(2-Chlorophenyl)-6,7-dihydropyrrolo[3,4-g]indol-8(1H)-one] the IC50 (GSK-3) was > 10 µM, the IC50 (CDK9/cyclin T) was > 10 µM and the melting point was 234 to 235 °C. For the same compound, the IC50 (CK1δ/ε) was > 10 µM, the IC50 (CDK1/cyclin B) was > 10 µM and the IC50 (DYRK1A) was 1.1 µM. For the same compound, the IC50 (CLK1) was 140 nM, the IC50 (CDK2/cyclin A) was > 10 µM and the IC50 (CDK5/p25) was > 10 µM.
For `CCn1cc(-c2ccccc2)c2ccc3c(c21)C(=O)NC3` [15b, 1-Ethyl-3-phenyl-6,7-dihydropyrrolo[3,4-g]indol-8(1H)-one], the IC50 (GSK-3) was > 10 µM, the IC50 (CDK9/cyclin T) was > 10 µM and the melting point was 198 to 200 °C. The IC50 (CK1δ/ε) was > 10 µM, the IC50 (CDK1/cyclin B) was > 10 µM and the IC50 (DYRK1A) was 3.9 µM. The IC50 (CLK1) was 380 nM, the IC50 (CDK2/cyclin A) was > 10 µM and the IC50 (CDK5/p25) was > 10 µM.
With `CCOC(=O)Cn1cc(-c2ccccc2)c2ccc3c(c21)C(=O)NC3` [15d, Ethyl 2-(8-oxo-3-phenyl-7,8-dihydropyrrolo[3,4-g]indol-1(6H)-yl)acetate] the IC50 (GSK-3) was > 10 µM, the IC50 (CDK9/cyclin T) was > 10 µM and the melting point was 226 to 227 °C. For the same compound, the IC50 (CK1δ/ε) was > 10 µM, the IC50 (CDK1/cyclin B) was > 10 µM and the IC50 (DYRK1A) was > 10 µM. For the same compound, the IC50 (CLK1) was > 10000 nM, the IC50 (CDK2/cyclin A) was > 10 µM and the IC50 (CDK5/p25) was > 10 µM.
